The values that follow come from patent US7199153B2, “Pharmaceutical composition comprising paracetamol and niflumic acid” (SmithKline Beechman, p.l.c., priority 2000, dated 2007).

For the assay, the system named is P-phenyl-quinone induced abdominal constriction in DBA/2 mice. Put plainly: P-phenyl-quinone induced mouse abdominal constriction (MAC) assay. The format is in vivo. Particulars: paracetamol alone at 50 mg/kg and 150 mg/kg, po. As to the method: The method is based on that described by Siegmund, Cadmus and Lu in “A Method for Evaluating both Non-Narcotic and Narcotic Analgesics” Proc. Soc. Exp. Biol. Med., 95: 729–731 (1957)).
DBA/2 mice were housed 20 per cage in a temperature and humidity controlled environment on a 12:12 hour light-dark cycle for five days with food and water ad libitum before testing. […] Ten animals were randomly allocated to each drug group and experimental designs were used that allowed complete randomisation of the testing of drug groups. Drugs were suspended in 1% methylcellulose and administered 10 ml/kg po, 60 mins pre-test. Abdominal constriction was induced by i.p. injection of 10 ml/kg P-phenyl-quinone (0.025% in 5% ethanol/water) and the total number of constrictions in a twenty minute period were measured. A constriction is defined as a flattening of the abdomen with extension of the hind limbs. Testing was blind with one experimenter observing five animals. All experiments were performed in accordance with the Animals (Scientific Procedures) Act 1986 and subject to local ethical committee approval.
For each drug group, the mean % inhibition of constrictions was calculated ((1-(test/control))*100) and appropriate statistics were performed on log-transformed data to test significant differences from vehicle and, in the case of groups receiving drug combinations, each drug alone.

Structures are written as SMILES.

For the compound `CC(=O)Nc1ccc(O)cc1` [Paracetamol, N-acetyl-p-aminophenol], the “% inhibition of constrictions, drug alone” value is recorded as “small but significant effect”.
